Laboratory results published in patent EP0295827A2, “Use of 24,25-dihydroxy-cholecalciferol in mending bone fractures” (priority 1987, dated 1988).

How the values were obtained:
Format in all cases: in vivo
Parameters in all cases: key: ↓: Decreased; →: No change; ↑: Increased
ICR mice [1] = assay: 30-day repeated oral administration: general blood test; conditions: 30 days, vs control group
Description: (§1) 24R,25-(OH)₂-D₃ was dissolved in 1% ethanol containing Panacate 810 to a predetermined concentration and the resultant solution was forcibly and orally administered to 5-week-old male or female ICR mice for 30 days in succession so that the does might become to 10 µg/kg/day, 100 µg/kg/day and 1,000 µg/kg/day, respectively. The thus treated mice were compared with a group of mice to which only the solvent had been administered in the following test items.

ICR mice [2] = assay: 30-day repeated oral administration: biochemical serum test; conditions: 30 days, vs control group
Description: as §1

ICR mice [3] = assay: 30-day repeated oral administration: urine analysis; conditions: female, 10 μg/kg oral, 30 days, vs control group
Description: as §1

Amount of hemoglobin (ICR mice [1]; female, 10 μg/kg·day oral): →
Homatocrit (ICR mice [1]; female, 10 μg/kg·day oral): →
Number of erythrocyte (ICR mice [1]; female, 10 μg/kg·day oral): →
Number of leucocyte (ICR mice [1]; female, 10 μg/kg·day oral): →
Amount of hemoglobin (ICR mice [1]; female, 100 μg/kg·day oral): →
Homatocrit (ICR mice [1]; female, 100 μg/kg·day oral): →
Number of erythrocyte (ICR mice [1]; female, 100 μg/kg·day oral): →
Number of leucocyte (ICR mice [1]; female, 100 μg/kg·day oral): →
Amount of hemoglobin (ICR mice [1]; female, 1000 μg/kg·day oral): →
Homatocrit (ICR mice [1]; female, 1000 μg/kg·day oral): →
Number of erythrocyte (ICR mice [1]; female, 1000 μg/kg·day oral): →
Number of leucocyte (ICR mice [1]; female, 1000 μg/kg·day oral): →
Amount of hemoglobin (ICR mice [1]; male, 10 μg/kg·day oral): →
Homatocrit (ICR mice [1]; male, 10 μg/kg·day oral): →
Number of erythrocyte (ICR mice [1]; male, 10 μg/kg·day oral): →
Number of leucocyte (ICR mice [1]; male, 10 μg/kg·day oral): →
Amount of hemoglobin (ICR mice [1]; male, 100 μg/kg·day oral): →
Homatocrit (ICR mice [1]; male, 100 μg/kg·day oral): →
Number of erythrocyte (ICR mice [1]; male, 100 μg/kg·day oral): →
Number of leucocyte (ICR mice [1]; male, 100 μg/kg·day oral): →
Amount of hemoglobin (ICR mice [1]; male, 1000 μg/kg·day oral): →
Homatocrit (ICR mice [1]; male, 1000 μg/kg·day oral): →
Number of erythrocyte (ICR mice [1]; male, 1000 μg/kg·day oral): →
Number of leucocyte (ICR mice [1]; male, 1000 μg/kg·day oral): →
A/G (ICR mice [2]; female, 10 µg/kg·day oral): →
ALP (ICR mice [2]; female, 10 µg/kg·day oral): →
Aℓb (ICR mice [2]; female, 10 µg/kg·day oral): →
BUN (ICR mice [2]; female, 10 µg/kg·day oral): →
Ca (ICR mice [2]; female, 10 µg/kg·day oral): →
GOT (ICR mice [2]; female, 10 µg/kg·day oral): →
GPT (ICR mice [2]; female, 10 µg/kg·day oral): →
Gℓu (ICR mice [2]; female, 10 µg/kg·day oral): →
I-P (ICR mice [2]; female, 10 µg/kg·day oral): →
LDH (ICR mice [2]; female, 10 µg/kg·day oral): →
T-Biℓ (ICR mice [2]; female, 10 µg/kg·day oral): →
T-CHO (ICR mice [2]; female, 10 µg/kg·day oral): →
T-P (ICR mice [2]; female, 10 µg/kg·day oral): →
A/G (ICR mice [2]; female, 100 µg/kg·day oral): →
ALP (ICR mice [2]; female, 100 µg/kg·day oral): →
Aℓb (ICR mice [2]; female, 100 µg/kg·day oral): →
BUN (ICR mice [2]; female, 100 µg/kg·day oral): →
Ca (ICR mice [2]; female, 100 µg/kg·day oral): →
GOT (ICR mice [2]; female, 100 µg/kg·day oral): →
GPT (ICR mice [2]; female, 100 µg/kg·day oral): →
Gℓu (ICR mice [2]; female, 100 µg/kg·day oral): →
I-P (ICR mice [2]; female, 100 µg/kg·day oral): →
LDH (ICR mice [2]; female, 100 µg/kg·day oral): →
T-Biℓ (ICR mice [2]; female, 100 µg/kg·day oral): →
T-CHO (ICR mice [2]; female, 100 µg/kg·day oral): →
T-P (ICR mice [2]; female, 100 µg/kg·day oral): →
A/G (ICR mice [2]; female, 1000 µg/kg·day oral): →
ALP (ICR mice [2]; female, 1000 µg/kg·day oral): →
Aℓb (ICR mice [2]; female, 1000 µg/kg·day oral): →
BUN (ICR mice [2]; female, 1000 µg/kg·day oral): →
Ca (ICR mice [2]; female, 1000 µg/kg·day oral): →
GOT (ICR mice [2]; female, 1000 µg/kg·day oral): →
GPT (ICR mice [2]; female, 1000 µg/kg·day oral): →
Gℓu (ICR mice [2]; female, 1000 µg/kg·day oral): →
I-P (ICR mice [2]; female, 1000 µg/kg·day oral): →
LDH (ICR mice [2]; female, 1000 µg/kg·day oral): →
T-Biℓ (ICR mice [2]; female, 1000 µg/kg·day oral): →
T-CHO (ICR mice [2]; female, 1000 µg/kg·day oral): →
T-P (ICR mice [2]; female, 1000 µg/kg·day oral): →
A/G (ICR mice [2]; male, 10 µg/kg·day oral): →
ALP (ICR mice [2]; male, 10 µg/kg·day oral): →
Aℓb (ICR mice [2]; male, 10 µg/kg·day oral): →
BUN (ICR mice [2]; male, 10 µg/kg·day oral): →
Ca (ICR mice [2]; male, 10 µg/kg·day oral): →
GOT (ICR mice [2]; male, 10 µg/kg·day oral): →
GPT (ICR mice [2]; male, 10 µg/kg·day oral): →
Gℓu (ICR mice [2]; male, 10 µg/kg·day oral): →
I-P (ICR mice [2]; male, 10 µg/kg·day oral): →
LDH (ICR mice [2]; male, 10 µg/kg·day oral): →
T-Biℓ (ICR mice [2]; male, 10 µg/kg·day oral): →
T-CHO (ICR mice [2]; male, 10 µg/kg·day oral): →
T-P (ICR mice [2]; male, 10 µg/kg·day oral): →
A/G (ICR mice [2]; male, 100 µg/kg·day oral): →
ALP (ICR mice [2]; male, 100 µg/kg·day oral): →
Aℓb (ICR mice [2]; male, 100 µg/kg·day oral): →
BUN (ICR mice [2]; male, 100 µg/kg·day oral): →
Ca (ICR mice [2]; male, 100 µg/kg·day oral): →
GOT (ICR mice [2]; male, 100 µg/kg·day oral): →
GPT (ICR mice [2]; male, 100 µg/kg·day oral): →
Gℓu (ICR mice [2]; male, 100 µg/kg·day oral): →
I-P (ICR mice [2]; male, 100 µg/kg·day oral): →
LDH (ICR mice [2]; male, 100 µg/kg·day oral): →
T-Biℓ (ICR mice [2]; male, 100 µg/kg·day oral): →
T-CHO (ICR mice [2]; male, 100 µg/kg·day oral): →
T-P (ICR mice [2]; male, 100 µg/kg·day oral): →
A/G (ICR mice [2]; male, 1000 µg/kg·day oral): →
ALP (ICR mice [2]; male, 1000 µg/kg·day oral): →
Aℓb (ICR mice [2]; male, 1000 µg/kg·day oral): →
BUN (ICR mice [2]; male, 1000 µg/kg·day oral): ↓
Ca (ICR mice [2]; male, 1000 µg/kg·day oral): →
GOT (ICR mice [2]; male, 1000 µg/kg·day oral): →
GPT (ICR mice [2]; male, 1000 µg/kg·day oral): →
Gℓu (ICR mice [2]; male, 1000 µg/kg·day oral): ↓
I-P (ICR mice [2]; male, 1000 µg/kg·day oral): →
LDH (ICR mice [2]; male, 1000 µg/kg·day oral): ↓
T-Biℓ (ICR mice [2]; male, 1000 µg/kg·day oral): ↓
T-CHO (ICR mice [2]; male, 1000 µg/kg·day oral): →
T-P (ICR mice [2]; male, 1000 µg/kg·day oral): →
Ketone body (ICR mice [3]): →
Compound: C=C1CC[C@H](O)C/C1=C/C=C1\CCC[C@]2(C)[C@@H]([C@H](C)CC[C@@H](O)C(C)(C)O)CC[C@@H]12 [24R,25-(OH)₂-D₃]
